Measurements: US20200062719A1, “Application of Imidazopyridine Derivatives in Regenerative Medicine” (University of Heidelberg, priority 2018, published 2020)

Experiments:
[1] = target: T1, KDM5C (Homo sapiens, UniProt P41229); assay: KDM5C inhibition, enzyme immunoprecipitated from cells; format: biochemical
T1 construct: magnetic beads were used to immunoprecipitate the respective enzymes from 10^8 cells; endogenous in cells
Excerpt: (§1) In mammalian cells, the KDM5 family consists of four members, namely, KDM5A (known as JARID1A), KDM5B (known as JARID1B or PLU1), KDM5C (JARID1C), and KDM5D (JARID1D or SMCY). […] Next, the inventors tested four KDM chemical inhibitors. […] The inventors detected the induction of OCT4, SOX2, and E-Cadherin expression in JIB-04-treated HFs (FIG. 18D).
(§2) Epiquik histone demethylase (H3K4 specific) activity/inhibition assay kit (Epigentek, Biocat, Germany) was used to measure the protective effect of O4I3 and zolpidem on the methylation of H3K4. Their inhibitory effects on LSD1, KDM5s, and KDM4 were determined using Epigenase jarid demethylase activity/inhibition assay kit, Epigenase JMJD2 demethylase activity/inhibition assay kit and EpiQuik histone demethylase LSD1 activity/inhibition assay kit (Epigentek, Biocat, Germany). The total nuclear extraction was used according to manufacturer's instructions. For measuring KDM5A, KDM5B, KDM5C, and KDM5D activity, magnetic beads were used to immunoprecipitate the respective enzymes from 10^8 cells according to the manufacturer's instructions (Cell Signaling Technologies).

[2] = system: hiPSCs; assay: Maintenance of hiPSCs, FACS of Tra-1-81 and Oct4 over passages; format: cell-based, human; settings: 50 nM O4I3, FACS
Protocol: Since O4I3 induced sustainable expression of Oct4 and Nanog, the inventors questioned if it supports iPSC self-renewal in single cell expansion. Therefore, the viability of iPSCs, after replating Accutase®-dissociated single iPSCs, was tested in the presence or absence of O4I3. Rocki (Y-27632) was used for the first 24 h to increase iPSCs survival. A nearly 300% higher viability in cells treated with O4I3 (1 nM) was observed. Using 50 nM of O4I3 even 400% increase was observed (FIG. 2A). FACS analysis confirmed homologous expression of iPSCs markers, Tra-1-81 and Oct4, for at least 30 passages (FIG. 2B).
iPSCs were seeded in a 6-well plate coated with Geltrex. Cells were harvested, fixed and permeabilized (if appropriately) as known in the art (Cheng et al, Mol Oncol. 2016 June; 10(6):806-24). Fixed cells were incubated with the primary antibody for 24 h at 4° C. and with the secondary antibody for 1 h at room temperature.

[3] = system: H3K4Me3; assay: Global H3K4Me3 level in fibroblasts (immunocytochemistry, immunoblotting); format: cell-based, human
Excerpt: The inventors investigated the transfection efficiency in HF1 and HF4 using the same episomal vector carrying cytomegalovirus (CMV)-driven GFP. The inventors could not observe a significant difference between two cell lines, as determined by FACS analysis. […] To study the epigenetic effects of O4I3 and its relevance to reprogramming, the inventors focused on two histone modifications at the promoter of OCT4, namely, H3K4Me3, known to be related to gene activation, and H3K27Me3, which indicates gene repression. […] The level of H3K27Me3 at the OCT4 promoter was minimally affected in our experiments (FIG. 17C). […] Immunoblotting confirmed a dose- and time-dependent increase of global H3K4Me3 expression in fibroblast, whereas H3K27Me3 remained mostly unaffected (FIG. 17E). In an in vitro methylation assay, O4I3 protected methylated H3K4 with an […] value of 20 nM (FIG. 17F). Trimethylation of H3K9 has been reported to block reprogramming by recruiting heterochromatin protein 1 to form heterochromatin at the core of pluripotency loci, which interferes with the hypermethylation of H3K4. […]
Fibroblasts were treated with O4I3 0.5 μM for 2 days in the presence/absence of reprogramming transcription factors. […] The signal intensity was analyzed using ImageJ software as single cell level randomly selected from at least three independent experiments.

[4] = system: KDM5; assay: KDM5 demethylase inhibition, whole-cell nuclear extraction; format: biochemical; settings: whole-cell nuclear extraction
Excerpt: HMT and HDM are two major classes of enzymes, contributing to the regulation of histone methylation. Lysine-specific demethylase 1 (LSD1) and histone lysine demethylase 5 (KDM5, also known as JARID1) majorly catalyze demethylation of H3K4. A few KDM5 chemical inhibitors have been reported to inhibit demethylation of H3K4, leading to an increase of global methylated H3K4 in various cell types. The inventors tested the inhibitory effect of O4I3 on LSD1 and KDM5. KDM4 (also known as JMJD2), the HDM of H3K9 and H3K36, was also included.
as §2

[5] = target: T2, KDM5D (Homo sapiens, UniProt Q9BY66); assay: KDM5D inhibition, enzyme immunoprecipitated from cells; format: biochemical
T2 construct: magnetic beads were used to immunoprecipitate the respective enzymes from 10^8 cells; endogenous in cells
Excerpt: as §1, §2

[6] = target: T3, KDM5A (Homo sapiens, UniProt P29375); assay: KDM5A inhibition, enzyme immunoprecipitated from cells; format: biochemical
T3 construct: magnetic beads were used to immunoprecipitate the respective enzymes from 10^8 cells; endogenous in cells
Excerpt: as §1, §2

[7] = system: Oct4; assay: Luciferase reporter assay in NCCIT-Oct4 cells; format: cell-based, human
Protocol: The ability of the lead compound to induce Oct4 at translational level was tested in a luciferase reporter cell line in human embryonic carcinoma NCCIT cells driven by Oct4 response elements (NCCIT-Oct4). The compound lead to a nearly 10-fold induction of Oct4 at 10 nM compared to untreated cells (FIG. 1B). Consequently, the lead compound was named “Oct4 inducing compound 3” (O4I3).
Luciferase reporter assay was performed using Beatle Juice Kit (PJK, Germany) according to the manufacturer's instruction. NCCIT-Oct and NCCIT-Nanog reporter cells were plated into a 24-well plate (100,000 cells/well) for 24 h. Cells were treated with compounds as indicated and harvested with luciferase lysis buffer (25 mM Tris phosphate buffer pH=7.8, 4 mM EGTA, 1% Triton X-100, 10% glycerol and 2 mM fresh DTT, filtered through 0.45 μm sterile filter) at 37° C. for 15 min. The protein concentration was determined by Bradford assay (Sigma, Germany). 100 μL reaction mixture containing luciferin and ATP was added to 20 μL cell lysis in a white plate (Gibco, Germany), incubated for 5 min and measured by a luminometer plate-reader. The activity was determined as percent luminous intensity of treated cells over control cells from at least five-independent experiments.

T1 sequence (P41229 whole entry): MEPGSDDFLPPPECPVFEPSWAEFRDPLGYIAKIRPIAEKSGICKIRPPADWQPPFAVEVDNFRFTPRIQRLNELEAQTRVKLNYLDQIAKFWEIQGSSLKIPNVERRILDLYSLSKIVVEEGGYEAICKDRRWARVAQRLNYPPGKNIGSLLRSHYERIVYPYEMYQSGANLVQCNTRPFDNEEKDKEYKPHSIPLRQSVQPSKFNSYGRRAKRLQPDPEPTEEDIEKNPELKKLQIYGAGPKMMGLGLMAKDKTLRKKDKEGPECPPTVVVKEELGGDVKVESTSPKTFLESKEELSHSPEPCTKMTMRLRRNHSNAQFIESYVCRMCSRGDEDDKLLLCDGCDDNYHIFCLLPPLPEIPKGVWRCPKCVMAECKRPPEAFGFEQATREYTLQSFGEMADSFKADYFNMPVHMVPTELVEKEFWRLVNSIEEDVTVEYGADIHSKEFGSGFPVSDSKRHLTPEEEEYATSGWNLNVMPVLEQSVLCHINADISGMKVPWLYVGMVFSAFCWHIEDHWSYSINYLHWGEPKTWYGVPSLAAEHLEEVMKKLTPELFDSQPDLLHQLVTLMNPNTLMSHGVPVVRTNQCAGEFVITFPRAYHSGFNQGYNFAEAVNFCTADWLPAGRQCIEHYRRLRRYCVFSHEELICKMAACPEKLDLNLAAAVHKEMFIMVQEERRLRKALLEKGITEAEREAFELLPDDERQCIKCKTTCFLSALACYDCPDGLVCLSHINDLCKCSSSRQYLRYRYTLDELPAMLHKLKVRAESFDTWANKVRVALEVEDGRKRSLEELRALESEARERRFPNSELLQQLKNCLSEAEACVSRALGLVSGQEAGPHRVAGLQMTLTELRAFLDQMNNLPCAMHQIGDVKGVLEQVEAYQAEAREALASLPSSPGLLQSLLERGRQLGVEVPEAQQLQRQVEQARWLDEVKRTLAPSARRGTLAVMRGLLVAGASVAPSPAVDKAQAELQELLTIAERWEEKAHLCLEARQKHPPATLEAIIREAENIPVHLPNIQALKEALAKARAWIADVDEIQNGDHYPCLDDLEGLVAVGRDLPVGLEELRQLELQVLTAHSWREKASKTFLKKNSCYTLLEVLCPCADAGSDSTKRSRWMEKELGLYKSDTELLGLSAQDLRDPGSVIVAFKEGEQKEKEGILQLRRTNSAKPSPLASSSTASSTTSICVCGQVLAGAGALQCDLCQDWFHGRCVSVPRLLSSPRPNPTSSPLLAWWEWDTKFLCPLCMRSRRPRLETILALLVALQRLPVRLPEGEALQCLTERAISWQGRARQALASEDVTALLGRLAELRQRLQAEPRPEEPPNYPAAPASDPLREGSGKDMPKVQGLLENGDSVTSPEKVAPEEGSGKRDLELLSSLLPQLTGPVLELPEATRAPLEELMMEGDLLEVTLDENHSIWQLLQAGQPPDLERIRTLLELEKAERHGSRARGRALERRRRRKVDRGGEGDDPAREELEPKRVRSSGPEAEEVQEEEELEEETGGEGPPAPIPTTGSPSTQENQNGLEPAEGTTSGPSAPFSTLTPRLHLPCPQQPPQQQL
T3 sequence (P29375 whole entry): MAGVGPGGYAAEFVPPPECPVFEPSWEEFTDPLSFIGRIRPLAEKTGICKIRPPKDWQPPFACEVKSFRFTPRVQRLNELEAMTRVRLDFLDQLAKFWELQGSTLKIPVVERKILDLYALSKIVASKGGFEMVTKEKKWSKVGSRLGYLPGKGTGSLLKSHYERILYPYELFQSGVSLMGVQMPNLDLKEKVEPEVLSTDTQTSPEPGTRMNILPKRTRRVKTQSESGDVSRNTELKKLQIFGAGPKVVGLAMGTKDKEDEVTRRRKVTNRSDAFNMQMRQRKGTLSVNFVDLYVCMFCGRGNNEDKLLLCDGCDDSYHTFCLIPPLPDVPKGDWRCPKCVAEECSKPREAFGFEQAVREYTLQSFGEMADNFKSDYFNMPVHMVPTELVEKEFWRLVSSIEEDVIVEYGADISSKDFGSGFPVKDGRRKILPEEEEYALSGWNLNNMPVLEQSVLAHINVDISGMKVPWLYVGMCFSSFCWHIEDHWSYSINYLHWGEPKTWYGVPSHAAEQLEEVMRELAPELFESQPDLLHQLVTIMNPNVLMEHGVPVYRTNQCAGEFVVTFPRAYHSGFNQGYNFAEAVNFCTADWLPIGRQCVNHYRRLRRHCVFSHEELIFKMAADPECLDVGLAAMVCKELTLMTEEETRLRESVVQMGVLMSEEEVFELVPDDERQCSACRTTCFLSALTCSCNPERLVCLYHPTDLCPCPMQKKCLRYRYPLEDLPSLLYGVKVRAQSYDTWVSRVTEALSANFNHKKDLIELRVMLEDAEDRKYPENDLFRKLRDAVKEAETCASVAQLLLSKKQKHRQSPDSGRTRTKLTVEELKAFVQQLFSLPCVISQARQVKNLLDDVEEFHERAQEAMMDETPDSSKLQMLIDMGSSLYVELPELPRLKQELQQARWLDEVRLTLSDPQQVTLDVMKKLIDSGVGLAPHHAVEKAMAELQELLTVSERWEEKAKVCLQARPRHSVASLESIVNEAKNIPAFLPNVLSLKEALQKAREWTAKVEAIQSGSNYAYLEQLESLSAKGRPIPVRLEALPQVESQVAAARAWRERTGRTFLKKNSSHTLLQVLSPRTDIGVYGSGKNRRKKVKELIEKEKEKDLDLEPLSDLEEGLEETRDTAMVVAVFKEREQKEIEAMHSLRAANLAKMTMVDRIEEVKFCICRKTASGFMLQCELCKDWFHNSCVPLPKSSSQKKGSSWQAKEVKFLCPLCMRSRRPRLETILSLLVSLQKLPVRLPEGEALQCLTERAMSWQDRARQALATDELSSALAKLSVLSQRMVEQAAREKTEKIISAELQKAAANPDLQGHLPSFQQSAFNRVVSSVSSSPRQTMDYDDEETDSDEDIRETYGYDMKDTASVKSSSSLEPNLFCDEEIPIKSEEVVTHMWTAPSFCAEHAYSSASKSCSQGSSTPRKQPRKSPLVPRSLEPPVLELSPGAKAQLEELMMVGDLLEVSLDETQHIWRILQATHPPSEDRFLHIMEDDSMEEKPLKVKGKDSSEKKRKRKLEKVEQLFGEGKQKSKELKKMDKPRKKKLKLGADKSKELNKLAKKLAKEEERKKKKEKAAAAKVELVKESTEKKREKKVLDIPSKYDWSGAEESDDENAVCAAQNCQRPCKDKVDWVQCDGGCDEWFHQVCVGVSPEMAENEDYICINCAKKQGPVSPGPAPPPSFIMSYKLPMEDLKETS
T2 sequence (Q9BY66 whole entry): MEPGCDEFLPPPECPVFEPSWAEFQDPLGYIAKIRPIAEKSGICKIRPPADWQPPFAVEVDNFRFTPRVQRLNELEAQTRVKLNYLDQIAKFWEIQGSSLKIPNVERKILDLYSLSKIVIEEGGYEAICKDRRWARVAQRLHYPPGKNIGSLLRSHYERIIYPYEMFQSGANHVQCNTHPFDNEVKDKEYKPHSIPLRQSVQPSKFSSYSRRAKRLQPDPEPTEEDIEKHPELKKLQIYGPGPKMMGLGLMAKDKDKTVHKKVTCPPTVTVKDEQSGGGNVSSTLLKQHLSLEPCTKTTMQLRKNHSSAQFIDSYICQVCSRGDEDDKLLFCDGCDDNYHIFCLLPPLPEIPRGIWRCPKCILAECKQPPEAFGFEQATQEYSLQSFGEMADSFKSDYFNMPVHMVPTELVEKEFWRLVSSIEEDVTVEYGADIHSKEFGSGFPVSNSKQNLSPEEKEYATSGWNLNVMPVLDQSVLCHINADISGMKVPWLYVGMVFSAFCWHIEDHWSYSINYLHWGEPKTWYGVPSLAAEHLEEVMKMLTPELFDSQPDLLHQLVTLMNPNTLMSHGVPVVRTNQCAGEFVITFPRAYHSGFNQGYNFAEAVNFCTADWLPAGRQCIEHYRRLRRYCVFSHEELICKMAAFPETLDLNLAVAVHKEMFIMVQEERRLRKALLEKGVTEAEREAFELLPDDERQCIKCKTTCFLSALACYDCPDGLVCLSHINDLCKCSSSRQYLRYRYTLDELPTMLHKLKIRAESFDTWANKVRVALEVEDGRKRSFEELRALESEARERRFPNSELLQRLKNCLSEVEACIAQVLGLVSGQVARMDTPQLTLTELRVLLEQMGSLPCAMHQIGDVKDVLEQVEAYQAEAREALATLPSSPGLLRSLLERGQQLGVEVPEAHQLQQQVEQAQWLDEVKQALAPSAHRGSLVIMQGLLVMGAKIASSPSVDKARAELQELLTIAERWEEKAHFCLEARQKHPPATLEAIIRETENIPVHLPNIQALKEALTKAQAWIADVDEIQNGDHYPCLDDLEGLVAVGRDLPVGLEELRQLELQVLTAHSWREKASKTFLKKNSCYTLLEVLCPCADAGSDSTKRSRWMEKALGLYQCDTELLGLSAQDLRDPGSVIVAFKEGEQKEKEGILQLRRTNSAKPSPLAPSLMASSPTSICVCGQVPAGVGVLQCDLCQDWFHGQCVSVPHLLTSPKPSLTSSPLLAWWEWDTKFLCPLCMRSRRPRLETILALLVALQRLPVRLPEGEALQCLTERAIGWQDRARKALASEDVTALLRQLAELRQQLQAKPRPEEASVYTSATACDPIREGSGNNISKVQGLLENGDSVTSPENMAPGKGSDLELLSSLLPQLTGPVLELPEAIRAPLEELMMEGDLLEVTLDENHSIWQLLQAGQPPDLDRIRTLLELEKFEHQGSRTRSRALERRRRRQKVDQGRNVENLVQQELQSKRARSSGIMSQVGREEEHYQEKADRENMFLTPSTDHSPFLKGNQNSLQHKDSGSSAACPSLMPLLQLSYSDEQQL

Cc1ccc(-c2cn3cc(C)ccc3n2)cc1 [O4I3, 6-methyl-2-(p-tolyl)imidazo[1,2-a]pyridine]
IC50 less potent than for KDM5A, KDM5C [1]: 40 fold | homologous expression of Tra-1-81 and Oct4, number of passages [2]: at least 30 passages | global level of H3K4Me3 [3]: increase of H3K4Me3 | IC50 [4]: 0.79 nM | IC50 less potent than for KDM5A, KDM5D [5]: 20 fold | IC50 [6]: 0.19 nM | induction of Oct4 compared to untreated cells ([7]; 10 nM, NCCIT-Oct4 cells, 48 h): ~10 fold | time course of Oct4 activation ([7]; over 4 days): continuous and constant activation
